In PMC7367873, “Dissecting the sequence determinants for dephosphorylation by the catalytic subunits of phosphatases PP1 and PP2A” (Nature Communications, 2020):
One block for each substance: values may come before it.

What was measured:
[1] = test system: GFP-14-3-3β and its binding proteins; test: GFP-14-3-3β co-IP with LC-MS/MS label-free quantification, untreated versus PP1c-treated; set-up: species or system human
Procedure: (§1) HeLa Kyoto cells expressing transiently transfected pEGFP(C1)-14-3-3β or pEGFP(C1) control plasmid, were incubated with 20 nM Calyculin A (# 9902 S, Cell Signaling Technology) for 12 min. Cells were washed twice on ice with cold PBS and after addition of 500 µL lysis buffer (100 mM NaCl, 10 mM Tris, 0.1% IGEPAL, 1 mM EDTA, 1 mM EGTA, 20 nM Calyculin A, 1x cOmplete Mini protease inhibitor cocktail (Sigma), 1 mM DTT, 1 mM MnCl2) cells were scraped from plates, lysed by 10 pushes through an injection needle (21 G, BD) and the insoluble fraction was pelleted by centrifugation (10 min, 10^4 rcf, 4 °C). Supernatants were then subjected to incubation with 1 µM recombinant phosphatase or buffer for 1 h at 30 °C. Next, we subjected samples to immunoprecipitation using α-GFP nanobodies covalently coupled to agarose beads (2 h, 4 °C, obtained from the EMBL PEPcore Core Facility). Beads were then washed three times with lysis buffer and samples were eluted in 1x LDS sample buffer (Thermo Fisher Scientific) by heating to 70 °C for 10 min.
(§2) The samples were then reduced with 25 mM dithiothreitol (10 min at 70 °C) and alkylated with 55 mM chloroacetamide (room temperature, 30 min, in the dark). Proteins were run on a precast 4–12% NuPAGE gel (ThermoFisher Scientific) for about 1 cm to concentrate the sample prior to in-gel tryptic digestion, which was performed according to the standard procedures. The peptides obtained were dried to completeness and resuspended in 12 µL of buffer A (0.1% FA), and 5 µL of sample were injected per MS measurement. The experiment was carried out in three independent replicates.
(§3) The samples were analyzed by LC-MS/MS on a Dionex Ultimate 3000 nano-HPLC coupled online to a Fusion Lumos Tribrid mass spectrometer (Thermo Fisher Scientific). Peptides were delivered to a trap column (75 µm × 2 cm, packed in-house with 5 µm C18 resin; Reprosil PUR AQ, Dr. Maisch) and washed using 0.1% FA at a flow rate of 5 µL/min for 10 min. Subsequently, peptides were transferred to an analytical column (75 µm × 45 cm, packed in-house with 3 µm C18 resin; Reprosil Gold) applying a flow rate of 300 nL/min and separated using a 60 min linear gradient from 4% to 32% LC solvent B (0.1% FA, 5% DMSO in ACN) in LC solvent A (0.1% FA in 5% DMSO). The eluate from the analytical column was sprayed via a stainless steel emitter (Thermo Fisher Scientific) at a source voltage of 2.1 kV into the mass spectrometer. The transfer capillary was heated to 275 °C. The Fusion Lumos was operated in positive ionization mode and data-dependent acquisition (DDA), automatically switching between MS1 and MS2 spectrum acquisition. Full scan MS1 spectra were recorded in the Orbitrap from 360 to 1300 m/z at a resolution of 60k (automatic gain control (AGC) target value of 4e5 charges, maximum injection time (maxIT) of 50 ms). Up to 20 peptide precursors were isolated (isolation window, 1.7 m/z; maximum injection time, 25 ms; and AGC value, 1e5), fragmented by high-energy collision-induced dissociation (HCD) using 30% normalized collision energy (NCE), and analyzed at a resolution of 15k in the Orbitrap. Precursor ions that were singly charged, unassigned, or with charge states >6+ were excluded. The dynamic exclusion duration of fragmented precursor ions was 20 s.
(§4) Peptide and protein identification and LFQ were performed using MaxQuant software (version 1.6.1.0)[64] by searching the data against all canonical protein sequences as annotated in the Swissprot reference database (human proteins only, 20193 entries, downloaded 22 March 2016, internally annotated with PFAM domains) using the embedded search engine Andromeda[65]. The MaxQuant search was performed using two variable modifications; oxidation of methionine and N-terminal protein acetylation. Carbamidomethylation on cysteines was specified as a fixed modification. Trypsin (Trypsin/P) was specified as the proteolytic enzyme with up to two allowed missed cleavage sites.

GFP-14-3-3β = GFP-14-3-3β co-IP with LC-MS/MS, untreated GFP-14-3-3β versus GFP control (14-3-3 interactome); format: binding, human
Procedure: as §1, §2, §3, §4

[2] = PP1 vs untreated, LFQ intensities, replicates 1-3
[3] = untreated vs GFP, LFQ intensities, replicates 1-3
[4] = PP1 vs untreated, LFQ intensities, 3 replicates each
[5] = untreated vs GFP, LFQ intensities, 3 replicates each
[6] = pairwise comparison PP1 vs untreated, student's t-test, 3 replicates each, LC-MS/MS label-free quantification
[7] = pairwise comparison untreated GFP-14-3-3β vs GFP, student's t-test, 3 replicates each, LC-MS/MS label-free quantification
[8] = log2 difference, pairwise comparison PP1 vs untreated, label-free quantification, 3 replicates each
[9] = log2 difference, pairwise comparison untreated vs GFP, label-free quantification, 3 replicates each
[10] = GFP-14-3-3β co-IP LC-MS/MS, PP1 vs untreated, student's t-test, label-free quantification, 3 replicates each
[11] = GFP-14-3-3β co-IP LC-MS/MS, untreated vs GFP, student's t-test, label-free quantification, 3 replicates each
[12] = pairwise comparison PP1 vs untreated
[13] = pairwise comparison untreated vs GFP
[14] = PP1 vs untreated, label-free quantification
[15] = untreated vs GFP, label-free quantification

Substance: BCLAF1
Difference (log2), PP1 vs untreated [1, 2]: -1.628 log2 | Difference (log2), untreated vs GFP (GFP-14-3-3β; [3]): 1.7962 log2

Substance: CEP170
Difference (log2), PP1 vs untreated [1, 4]: 0.4617 log2 | Difference (log2), untreated vs GFP (GFP-14-3-3β; [5]): 2.101 log2

Substance: ARHGAP21
Difference (log2), PP1 vs untreated [1, 6]: -2.341 log2 | Difference (log2), untreated vs GFP (GFP-14-3-3β; [7]): 4.914 log2

Substance: XRCC5
Difference (log2), PP1 vs untreated [1, 12]: 0.08186 log2 | Difference (log2), untreated vs GFP (GFP-14-3-3β; [13]): -0.1105 log2

Substance: HSP90AB1
Difference (log2), PP1 vs untreated [1, 2]: -0.9521 log2 | Difference (log2), untreated vs GFP (GFP-14-3-3β; [3]): 0.1843 log2

Substance: PSIP1
Difference (log2), PP1 vs untreated [1, 10]: -0.2351 log2 | Difference (log2), untreated vs GFP (GFP-14-3-3β; [11]): 1.521 log2

Substance: DYNC1H1
Difference (log2), PP1 vs untreated [1, 14]: 0.7684 log2 | Difference (log2), untreated vs GFP (GFP-14-3-3β; [15]): 3.605 log2

Substance: RFC3
Difference (log2), PP1 vs untreated [1, 8]: 1.3203 | Difference (log2), untreated vs GFP (GFP-14-3-3β; [9]): -0.5439

Substance: LARP4B
Difference (log2), PP1 vs untreated [1, 14]: 0.8043 log2 | Difference (log2), untreated vs GFP (GFP-14-3-3β; [15]): 0.9646 log2

Substance: CFL1
Difference (log2), PP1 vs untreated [1, 4]: 0.4849 log2 | Difference (log2), untreated vs GFP (GFP-14-3-3β; [5]): -1.088 log2

Substance: RPA3
Difference (log2), PP1 vs untreated [1, 2]: -1.739 log2 | Difference (log2), untreated vs GFP (GFP-14-3-3β; [3]): -0.7925 log2

Substance: TRIM25
Difference (log2), PP1 vs untreated [1, 12]: 0.1738 log2 | Difference (log2), untreated vs GFP (GFP-14-3-3β; [13]): -0.2184 log2

Substance: LARS
Difference (log2), PP1 vs untreated [1, 12]: 0.05859 log2 | Difference (log2), untreated vs GFP (GFP-14-3-3β; [13]): -0.7263 log2

Substance: EPPK1
Difference (log2), PP1 vs untreated [1, 12]: 0.1139 log2 | Difference (log2), untreated vs GFP (GFP-14-3-3β; [13]): 0.5175 log2

Substance: HNRNPU
Difference (log2), PP1 vs untreated [1, 10]: -0.3998 log2 | Difference (log2), untreated vs GFP (GFP-14-3-3β; [11]): 0.9402 log2

Substance: NUMA1
Difference (log2), PP1 vs untreated [1, 2]: -0.7467 log2 | Difference (log2), untreated vs GFP (GFP-14-3-3β; [3]): 2.2393 log2

Substance: PPIB
Difference (log2), PP1 vs untreated [1, 4]: 0.6708 log2 | Difference (log2), untreated vs GFP (GFP-14-3-3β; [5]): 0.09722 log2

Substance: ZC3H4
Difference (log2), PP1 vs untreated [1, 12]: -0.1033 log2 | Difference (log2), untreated vs GFP (GFP-14-3-3β; [13]): 0.7684 log2

Continued, in another order:

Difference (log2), PP1 vs untreated [1, 2]: -1.659 log2
Substance: PKM
Difference (log2), untreated vs GFP (GFP-14-3-3β; [3]): 0.471 log2

Difference (log2), PP1 vs untreated [1, 8]: 1.301
Substance: MGST3
Difference (log2), untreated vs GFP (GFP-14-3-3β; [9]): 0.5005

Difference (log2), PP1 vs untreated [1, 10]: -0.2989 log2
Substance: TIMM50
Difference (log2), untreated vs GFP (GFP-14-3-3β; [11]): 1.085 log2

Difference (log2), PP1 vs untreated [1, 6]: -2.032 log2
Substance: MYH9
Difference (log2), untreated vs GFP (GFP-14-3-3β; [7]): 0.3664 log2

Difference (log2), PP1 vs untreated [1, 14]: 0.961 log2
Substance: IFI16
Difference (log2), untreated vs GFP (GFP-14-3-3β; [15]): 0.868 log2

Difference (log2), PP1 vs untreated [1, 6]: -4.621 log2
Substance: FBXO22
Difference (log2), untreated vs GFP (GFP-14-3-3β; [7]): 0.4281 log2

Difference (log2), PP1 vs untreated [1, 2]: -1.031 log2
Substance: PPL
Difference (log2), untreated vs GFP (GFP-14-3-3β; [3]): -0.5694 log2

Difference (log2), PP1 vs untreated [1, 12]: -0.1328 log2
Substance: TOMM40
Difference (log2), untreated vs GFP (GFP-14-3-3β; [13]): 1.138 log2

Difference (log2), PP1 vs untreated [1, 14]: 0.9874 log2
Substance: MYO5C
Difference (log2), untreated vs GFP (GFP-14-3-3β; [15]): -0.7461 log2

Difference (log2), PP1 vs untreated [1, 2]: -1.048 log2
Substance: TAF15
Difference (log2), untreated vs GFP (GFP-14-3-3β; [3]): 0.6755 log2

Difference (log2), PP1 vs untreated [1, 2]: -1.162 log2
Substance: TNKS1BP1
Difference (log2), untreated vs GFP (GFP-14-3-3β; [3]): 1.91 log2

Difference (log2), PP1 vs untreated [1, 10]: -0.2118 log2
Substance: CKAP5
Difference (log2), untreated vs GFP (GFP-14-3-3β; [11]): -0.6501 log2

Difference (log2), PP1 vs untreated [1, 4]: 0.4174 log2
Substance: USP10
Difference (log2), untreated vs GFP (GFP-14-3-3β; [5]): 1.017 log2

Difference (log2), PP1 vs untreated [1, 12]: 0.2293 log2
Substance: CSE1L
Difference (log2), untreated vs GFP (GFP-14-3-3β; [13]): -0.7283 log2

Difference (log2), PP1 vs untreated [1, 10]: -0.3347 log2
Substance: HSPA8
Difference (log2), untreated vs GFP (GFP-14-3-3β; [11]): -0.3706 log2

Difference (log2), PP1 vs untreated [1, 6]: -2.609 log2
Substance: VPS13D
Difference (log2), untreated vs GFP (GFP-14-3-3β; [7]): 3.223 log2
